Measured values: paper PMC4578755, “Development of novel cellular histone-binding and chromatin-displacement assays for bromodomain drug discovery” (Epigenetics & Chromatin, 2015)
Each block holds one compound with its values, some of them ahead of it.

Columns and labels:
[1] = molecular target: T1, FLAG-tagged BRD4 in HeLa cells (Homo sapiens, UniProt O60885); test: In situ cell extraction with IF, BRD4 displacement from chromatin; type: cell-based; settings: HeLa FLAG-BRD4, 96-well, IF
T1 construct: expressed in transfected cells; host or cells: HeLa

[2] = molecular target: FLAG-TRIM24-PHD-Bromo-V5 (isolated PHD-bromodomain, residues 810-1050) (human) (UniProt O15164); test: proximity ligation; HeLa TRIM24-PB cells, fixed; goat anti-V5 and mouse anti-histone H3 antibody pair; with and without SAHA (5 µM, 2 h)
[3] = molecular target: FLAG-TRIM24-PHD-Bromo-V5 (isolated PHD-bromodomain, residues 810-1050) (human) (UniProt O15164); test: AlphaScreen or HTRF; AlphaLISA on lysates of HeLa TRIM24-PB cells pretreated with SAHA or DMSO; anti-FLAG or anti-V5 acceptor beads, biotinylated anti-histone H3 antibody, streptavidin donor beads; histone extraction buffer diluted in water
[4] = system: FLAG-tagged BRD4 in HeLa cells; test: In situ cell extraction with IF, BRD4 displacement from chromatin; type: cell-based; settings: for IF signal for histone H3: HeLa FLAG-BRD4, two-color staining
[5] = molecular target: biotinylated H3K23Ac peptide (N-terminal residues 1-33 of histone H3); test: AlphaScreen or HTRF; AlphaScreen; biotinylated H3K23Ac peptide in excess (1 µM), indicated amounts of His-TRIM24 WT or N980A; streptavidin donor beads and Ni-NTA acceptor beads
[6] = molecular target: biotinylated H3K23Ac peptide (N-terminal residues 1-33 of histone H3); test: AlphaScreen or HTRF; AlphaScreen optimisation matrix of TRIM24 protein and peptide (twofold dilution series); final conditions 5 nM TRIM24 and 15 nM peptide; Buffer B (50 mM Hepes pH 7.4, 100 mM NaCl, 0.1 % BSA, 0.05 % Chaps), room temperature
[7] = system: histone H3K23Ac mark in HeLa cells; test: H3K23 acetylation in HeLa cells (Western blot, anti-H3K23Ac immunostaining); type: cell-based; settings: HDAC inhibitor treatment, 2 µM, 2 h; Western blot
Protocol: Standard IF procedures were used. Briefly, cells were permeabilized (0.5 % Triton X-100 in PBS) for 15 min and incubated with blocking solution (DAKO #X0909) for 30 min. The following primary antibodies were used: goat anti-V5 (Bethyl #A190-119A) 1:200; mouse anti-FLAG (Sigma #F1804) 1:200; rabbit anti-BRD4 (Abcam #ab128874) 1:200; rabbit anti-TRIM24 (Proteintech #14208-1-AP) 1:400; rabbit anti-K3K23Ac (Cell Signaling #8848) 1:200, and mouse anti-histone H3 (Active Motif #39763) 1:4000. Alexa Fluor-conjugated secondary antibodies were from Invitrogen and Hoechst 33342 (Invitrogen, #H3570) was used for nuclei counterstaining (10 µg/ml). For each Alexa fluorochrome, images (4–10 fields per well; 20X magnifications) were acquired using the Operetta High-Content Screening System (PerkinElmer). Image analysis was performed in Harmony software (PerkinElmer) by selecting nuclei and cytoplasm in Hoechst channel. Gating for single cells of flat morphology was done based on nuclei area, roundness and intensity of Hoechst in the nucleus and in the cytoplasm. In every gated cell, the mean signal intensity value for each fluorochrome was calculated separately in nucleus and cytoplasm. The specific nuclear signal was estimated subtracting mean cytoplasmic value from nuclear; and average value was calculated using at least 1000 cells in each well.

SMARCA2 = system: SMARCA2; set-up: method as in PMID 26139243; settings: cited from earlier work

biotinylated H3K23Ac peptide (N-terminal residues 1-33 of histone H3), sequence (peptide, as listed by the source): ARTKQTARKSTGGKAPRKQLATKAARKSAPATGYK

Displacement of BRD4 from chromatin [1]: partial displacement
Compound: COc1cc(OC)c2c(=O)[nH]c(-c3cc(C)c(OCCO)c(C)c3)nc2c1 [RVX-208]

fold increase of the PLA signal with SAHA against no SAHA [2]: > 3 fold
AlphaLISA S/B (FLAG-acceptor beads, histone extraction buffer diluted 1:10) [3]: 50 fold
AlphaLISA S/B (FLAG-acceptor beads, histone extraction buffer replaced by water) [3]: 20
AlphaLISA S/B (V5-acceptor beads) [3]: 14 fold
AlphaLISA S/B (final 384-well protocol, 26 plates) [3]: 30
Compound: endogenous histone H3 (from UniProt P68431 1-136) (natural protein)

Compound: Cc1sc2c(c1C)C(c1ccc(Cl)cc1)=N[C@@H](CC(=O)OC(C)(C)C)c1nnc(C)n1-2 [JQ1]
IF signal for histone H3 [4]: unaffected
Time to decrease in BRD4 bromodomain binding to chromatin ([4]; JQ1 1 µM, HeLa expressing FLAG-tagged bromodomain of BRD4): ≤ 5 min

AlphaScreen signal to background (S/B) [5]: > 250
AlphaScreen S/B at 5 nM TRIM24 and 15 nM peptide [6]: 432
Compound: His-tagged TRIM24 PHD-bromodomain, wild type (domain or fragment)

Compound: CC(/C=C/C(=O)NO)=C\[C@@H](C)C(=O)c1ccc(N(C)C)cc1 [TSA, Trichostatin A]
Cellular histone H3K23Ac mark [7]: hyperacetylated

Compound: O=C(/C=C/N1C[C@H]2C[C@@H]1CN2c1ccccn1)c1ccccc1O [PFI-3]
Displacement of endogenous full-length SMARCA2 protein from chromatin (SMARCA2): fails to displace
Displacement of isolated GFP-tagged SMARCA2 bromodomain from chromatin (SMARCA2; engineered cells): can displace

Compound: I-BET 151
IF signal for histone H3 [4]: unaffected
